# Assays:
# [1] = Dynamic vapor sorption (DVS) moisture sorption analysis; format: physicochemical
# Procedure: Dynamic Vapor Sorption (DVS)
# The moisture sorption analysis (DVS) was performed using a ProUmid GmbH & Co.
# KG Vsorp Enhanced dynamic vapor sorption apparatus. The moisture profile was evaluated by monitoring vapor adsorption/desorption over the range of 0 to 90% relative humidity at 25° C. The sample weight equilibrium criteria were set at 0.01% change in 45 min with minimum and maximum time of acclimation at 50 min and 120 min, respectively. The moisture profile consisted of 2 cycles of vapor adsorption/desorption.
# [2] = test system: OCI-AML3 cells; assay: Proliferation (spheroid) assay, OCI-AML3; format: cell-based; conditions: Homo sapiens, OCI-AML-3, 192 h; 8 days; read-out: spheroid assay_OCI-AML3 IC50
# Procedure: (§1) The anti-proliferative effect of menin/MLL protein/protein interaction inhibitor test compounds was assessed in human leukemia cell lines. The cell line MOLM14 harbors a MLL translocation and expresses the MLL fusion protein MLL-AF9, respectively, as well as the wildtype protein from the second allele. OCI-AML3 cells that carry the NPM1c gene mutation were also tested. […] KO-52 was used as a control cell line containing two MLL (KMT2A) wildtype alleles in order to exclude compounds that display general cytotoxic effects.
# (§2) MOLM14 cells were cultured in RPMI-1640 (Sigma Aldrich) supplemented with 10% heat-inactivated fetal bovine serum (HyClone), 2 mM L-glutamine (Sigma Aldrich) and 50 μg/ml gentamycin (Gibco). KO-52 and OCI-AML3 cell lines were propagated in alpha-MEM (Sigma Aldrich) supplemented with 20% heat-inactivated fetal bovine serum (HyClone), 2 mM L-glutamine (Sigma Aldrich) and 50 μg/ml gentamycin (Gibco).
# (§3) In order to assess the anti-proliferative effects, 200 MOLM14 cells, 200° C. […] Spheroid like growth was measured in real-time by live-cell imaging (IncuCyteZOOM, Essenbio, 4× objective) acquiring images at day 8. Confluence (%) as a measure of spheroid size was determined using an integrated analysis tool.
# (§4) In order to determine the effect of the test compounds over time, the confluence in each well as a measure of spheroid size, was calculated. […]
# [3] = test system: MEIS1 mRNA; assay: MEIS1 mRNA expression assay (Quantigene Singleplex) in MOLM14 cells; format: cell-based; conditions: Homo sapiens, MOLM-14, 48 hours
# Procedure: 2b) MEIS1 mRNA Expression Assay
# MEIS1 mRNA expression upon treatment of compound was examined by Quantigene Singleplex assay (Thermo Fisher Scientific). This technology allows for direct quantification of mRNA targets using probes hybridizing to defined target sequences of interest and the signal is detected using a Multimode plate reader Envision (PerkinElmer). The MOLM14 cell line was used for this experiment. Cells were plated in 96-well plates at 3,750 cells/well in the presence of increasing concentrations of compounds. After incubation of 48 hours with compounds, cells were lysed in lysis buffer and incubated for 45 minutes at 55° C. Cell lysates were mixed with human MEIS1 specific capture probe or human RPL28 (Ribosomal Protein L28) specific probe as a normalization control, as well as blocking probes. Cell lysates were then transferred to the custom assay hybridization plate (Thermo Fisher Scientific) and incubated for 18 to 22 hours at 55° C. Subsequently, plates were washed to remove unbound materials followed by sequential addition of preamplifiers, amplifiers, and label probe. Signals (=gene counts) were measured with a Multimode plate reader Envision. IC50s were calculated by dose-response modelling using appropriate software. For all non-housekeeper genes response equal counts corrected for background and relative expression. For each sample, each test gene signal (background subtracted) was divided by the normalization gene signal (RPL28: background subtracted). Fold changes were calculated by dividing the normalized values for the treated samples by the normalized values for the DMSO treated sample. Fold changes of each target gene were used for the calculation of IC50s.
# [4] = test system: MOLM14 cells; assay: Proliferation (spheroid) assay, MOLM14; format: cell-based; conditions: Homo sapiens, MOLM-14, 192 h, 8 days; read-out: spheroid assay_MOLM14 IC50
# Procedure: as §1, §2
# In order to assess the anti-proliferative effects, 200 MOLM14 cells, […] or 300 KO-52 cells were seeded in 200 μl media per well in 96-well round bottom, ultra-low attachment plates (Costar, catalogue number 7007). Cell seeding numbers were chosen based on growth curves to ensure linear growth throughout the experiment. Test compounds were added at different concentrations and the DMSO content was normalized to 0.3%. Cells were incubated for 8 days at 37° C. and 5% CO2. Spheroid like growth was measured in real-time by live-cell imaging (IncuCyteZOOM, Essenbio, 4× objective) acquiring images at day 8. Confluence (%) as a measure of spheroid size was determined using an integrated analysis tool.
# In order to determine the effect of the test compounds over time, the confluence in each well as a measure of spheroid size, was calculated. Confluence of the highest dose of a reference compound was used as baseline for the LC (Low control) and the confluence of DMSO treated cells was used as 0% cytotoxicity (High Control, HC).
# Absolute IC50 values were calculated as percent change in confluence as follows: • LC=Low Control: cells treated with e.g. 1 μM of the cytotoxic agent staurosporin, or e.g. cells treated with a high concentration of an alternative reference compound • HC═High Control: Mean confluence (%) (DMSO treated cells) • % Effect=100−(100*(Sample-LC)/(HC-LC))
# GraphPad Prism (version 7.00) was used to calculate the ICso. Dose-response equation was used for the plot of % Effect vs Log10 compound concentration with a variable slope and fixing the maximum to 100% and the minimum to 0%.
# [5] = test system: KO-52 cells; assay: Proliferation (spheroid) assay, KO-52 control cell line; format: cell-based; conditions: Homo sapiens, 192 h; 8 days; read-out: spheroid assay_KO-52 IC50
# Procedure: as §1, §2, §3, §4
# [6] = common ambient RH of 40% to 75%
compound,measurement,setting,value
CC(=O)N1CCC(CN2CC[C@@H](Cc3cn(-c4ccc(F)cc4C(=O)N(C)C(C)C)c4cncc(C)c34)C2)CC1 [Compound 51a],total moisture mass at equilibrium,[1]; [6],8.5-9.5%
same,water content at equilibrium,[1]; [6],around 3 equivalents of water
same,hygroscopicity (DVS change in mass plot),"[1]; crystalline HCl salt Form, 0 to 90% relative humidity, 25° C.",hygroscopic
same,solid-state form after DVS test (XRPD),[1]; fraction obtained after the DVS test compared to starting material,No indication of a solid-state form change
same,"moisture adsorbed and desorbed, on average","[1]; humidity range of 20-90% RH, 25° C.",up to 2.5 % by mass
same,IC50,[2],0.07 µM
same,IC50,[3],0.011 µM
same,IC50,[4],0.013 µM
same,IC50,[5],1.2 µM

# — US20260191838A1, “COMBINATIONS COMPRISING A MENIN-MLL INHIBITOR AND A BCL-2 INHIBITOR” (JANSSEN PHARMACEUTICA NV, priority 2022, published 2026)
